One series deals with T1, human CRF receptor (Homo sapiens, UniProt P34998).
T1 construct: expressed in transfected cells; host or cells: CHO cells (membrane fraction)
T1 sequence (P34998 24-415): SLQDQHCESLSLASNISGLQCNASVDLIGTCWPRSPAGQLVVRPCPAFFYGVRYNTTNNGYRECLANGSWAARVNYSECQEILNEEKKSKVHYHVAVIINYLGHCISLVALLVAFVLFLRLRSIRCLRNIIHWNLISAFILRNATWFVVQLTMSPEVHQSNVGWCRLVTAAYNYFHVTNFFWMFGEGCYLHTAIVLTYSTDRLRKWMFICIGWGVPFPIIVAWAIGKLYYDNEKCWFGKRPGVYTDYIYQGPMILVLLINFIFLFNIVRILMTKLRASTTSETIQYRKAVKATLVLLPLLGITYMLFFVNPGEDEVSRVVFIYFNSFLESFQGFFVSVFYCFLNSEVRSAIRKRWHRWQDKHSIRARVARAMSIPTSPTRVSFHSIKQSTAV
Kind of series: Measurement of CRF Binding Inhibitory Rate (receptor binding experiment with 125I-CRF). The following applies: human CRF receptor expressing CHO cellular membrane fraction; 50 pM ovine 125I-CRF; 0.05 nM to 10 μM of compound; room temperature 1.5 hr; read-out: IC50 values (CRF binding inhibition).

In general, melting point refers to the temperature, or range, at which the solid turns liquid. In general, IC50 refers to the midpoint of a concentration-inhibition curve.

Each structure is given as a SMILES string.

The compound `CCC(CC)c1ccc(Cl)c2nc(Oc3c(Cl)cc(Cl)cc3N3CCN(C)CC3)n(C)c12` [Example 26, 4-Chloro-2-[2,4-dichloro-6-(4-methylpiperazin-1-yl)phenoxy]-7-(1-ethylpropyl)-1-methyl-1H-benzimidazole] registered a melting point of 162 to 164 °C. Besides, the IC50 on human CRF receptor is < 1 µM.
On the same counts, the results for `CCC(CC=O)c1ccc(Cl)c2nc(Oc3c(C)cc(Cl)cc3Cl)n(C)c12` (centres unmarked) [Example 98, 3-[4-Chloro-2-(2,4-dichloro-6-methylphenoxy)-1-methyl-1H-benzimidazol-7-yl]pentanal] are 157 to 158 °C and < 1 µM.
For the compound `CCC(CC)c1ccc(Cl)c2nc(Oc3c(OC)cc(C(F)(F)F)nc3C)n(C)c12` [Example 56, 4-Chloro-7-(1-ethylpropyl)-2-{[4-methoxy-2-methyl-6-(trifluoromethyl)pyridin-3-yl]oxy}-1-methyl-1H-benzimidazole], the melting point lay within 178 to 179 °C. In addition, the IC50 on human CRF receptor was < 1 µM.
In turn, `CCC(CC)c1ccc(OC)c2nc(Oc3c(Cl)cc(Cl)cc3CN3CCCC3)n(C)c12.Cl` [Example 79, 2-[2,4-Dichloro-6-(pyrrolidin-1-ylmethyl)phenoxy]-7-(1-ethylpropyl)-4-methoxy-1-methyl-1H-benzimidazole] showed a melting point of 183 to 185 °C. In addition, the IC50 on human CRF receptor was < 1 µM.
The compound `CCC(CC)c1ccc(Cl)c2nc(Oc3c(C)cc([S+](C)[O-])cc3Cl)n(C)c12` (centres unmarked) [Example 37, 4-Chloro-2-[2-chloro-6-methyl-4-(methylsulfinyl)phenoxy]-7-(1-ethylpropyl)-1-methyl-1H-benzimidazole] displayed a melting point of 182 to 184 °C. At human CRF receptor, the IC50 is < 1 µM.
As to `CCC(CC)c1ccc(OC)c2nc(Oc3ccc(C(C)=O)cc3C)n(C)c12` [Example 6, 1-(4-{[7-(1-Ethylpropyl)-4-methoxy-1-methyl-1H-benzimidazol-2-yl]oxy}-3-methylphenyl)ethanone], the melting point was in the range of 114 to 115 °C. The IC50 at human CRF receptor is < 1 µM.
In the case of `CCC(CC)c1ccc(Cl)c2nc(Oc3c(Cl)cc(OC(F)(F)F)cc3S(C)(=O)=O)n(C)c12` [Example 44, 4-Chloro-2-[2-chloro-6-(methylsulfonyl)-4-(trifluoromethoxy)phenoxy]-7-(1-ethylpropyl)-1-methyl-1H-benzimidazole], the melting point fell in the range of 164 to 165 °C. Further, the IC50 on human CRF receptor is < 1 µM.
Turning to `CCC(CC)c1ccc(OC)c2nc(Nc3c(C)cc(Cl)cc3Cl)n(C)c12` [Example 88, N-(2,4-Dichloro-6-methylphenyl)-7-(1-ethylpropyl)-4-methoxy-1-methyl-1H-benzimidazol-2-amine], the melting point lay within 201 to 203 °C. Moreover, at human CRF receptor, the concentration for half-maximal inhibition (IC50) was < 1 µM.
In turn, `CCC(CC)c1ccc(Cl)c2nc(Oc3ccc(N(C)C)cc3Cl)n(C)c12` [Example 83, 3-Chloro-4-{[4-chloro-7-(1-ethylpropyl)-1-methyl-1H-benzimidazol-2-yl]oxy}-N,N-dimethylaniline] gave a melting point of 148 to 149 °C. Also, the concentration for half-maximal inhibition (IC50) on human CRF receptor is < 1 µM.
With `CCC(CC)c1ccc(Cl)c2nc(Oc3c(Cl)cc(Cl)cc3-n3ccnc3)n(C)c12` [Example 27, 4-Chloro-2-[2,4-dichloro-6-(1H-imidazol-1-yl)phenoxy]-7-(1-ethylpropyl)-1-methyl-1H-benzimidazole], the melting point is 134 to 135 °C. In addition, the 50% inhibitory concentration (IC50) on human CRF receptor is < 1 µM.
`CCC(CC)c1ccc(OC)c2nc(Nc3ccc(Cl)cc3Cl)n(C)c12` [Example 20, N-(2,4-Dichlorophenyl)-7-(1-ethylpropyl)-4-methoxy-1-methyl-1H-benzimidazol-2-amine] displayed a melting point of 198 to 200 °C. Further, on human CRF receptor, the IC50 was < 1 µM.
Taken in the same sequence, the figures for `CCC(CC)c1ccc(OC)c2nc(Oc3c(Cl)cc(N(C)C)cc3Cl)n(C)c12` [Example 2, 3,5-Dichloro-4-{[7-(1-ethylpropyl)-4-methoxy-1-methyl-1H-benzimidazol-2-yl]oxy}-N,N-dimethylaniline] were 176 to 177 °C and < 1 µM.
Take `CCC(CC)c1ccc(OC)c2nc(Oc3ccc(OC(F)(F)F)cc3CN(C)C)n(C)c12` [Example 13, 1-[2-{[7-(1-Ethylpropyl)-4-methoxy-1-methyl-1H-benzimidazol-2-yl]oxy}-5-(trifluoromethoxy)phenyl]-N,N-dimethylmethanamine]: the melting point is 95 to 97 °C. Moreover, the IC50 on human CRF receptor is < 1 µM.
Turning to `CCC(CC)c1ccc(Cl)c2nc(Oc3c(Cl)cc(Cl)c4c3CN(C)C4)n(C)c12` [Example 55, 4-Chloro-2-[(5,7-dichloro-2-methyl-2,3-dihydro-1H-isoindol-4-yl)oxy]-7-(1-ethylpropyl)-1-methyl-1H-benzimidazole], the melting point was in the range of 148 to 149 °C. Further, at human CRF receptor, the IC50 was < 1 µM.
`CCC(CC)c1ccc(Br)c2nc(Oc3c(C)cc(Cl)cc3Cl)n(C)c12` [Example 70, 4-Bromo-2-(2,4-dichloro-6-methylphenoxy)-7-(1-ethylpropyl)-1-methyl-1H-benzimidazole] had a melting point of 146 to 147 °C. For the same compound, the 50% inhibitory concentration (IC50) at human CRF receptor is < 1 µM.
Compound `CCC(CC)c1ccc(OC)c2nc(Nc3ccc(Cl)cc3Br)n(C)c12` [Example 19, N-(2-Bromo-4-chlorophenyl)-7-(1-ethylpropyl)-4-methoxy-1-methyl-1H-benzimidazol-2-amine] returned a melting point of 193 to 195 °C. Further, the IC50 on human CRF receptor was < 1 µM.
The compound `CCC(CC)c1ccc(OC)c2nc(Oc3c(F)cc(Br)cc3Cl)n(C)c12` [Example 81, 2-(4-Bromo-2-chloro-6-fluorophenoxy)-7-(1-ethylpropyl)-4-methoxy-1-methyl-1H-benzimidazole] gave a melting point of 129 to 131 °C. Further, the IC50 at human CRF receptor is < 1 µM.
On the same counts, the results for `CCC(CCO)c1ccc(Cl)c2nc(Oc3c(C)cc(Cl)cc3Cl)n(C)c12` (centres unmarked) [Example 97, 3-[4-Chloro-2-(2,4-dichloro-6-methylphenoxy)-1-methyl-1H-benzimidazol-7-yl]pentan-1-ol] are 165 to 167 °C and < 1 µM.
Taken in the same sequence, the figures for `CCC(CC)c1ccc(OC)c2nc(Oc3ccc(OC(F)(F)F)cc3Br)n(C)c12` [Example 10, 2-[2-Bromo-4-(trifluoromethoxy)phenoxy]-7-(1-ethylpropyl)-4-methoxy-1-methyl-1H-benzimidazole] were 117 to 118 °C and < 1 µM.

(Values after patent US20100056515A1, “BENZIMIDAZOLE COMPOUNDS” (priority 2006, published 2010).)
